In ChEMBL document CHEMBL1152429, “Design and synthesis of new 1,3-benzthiazinan-4-one derivatives as selective cyclooxygenase (COX-2) inhibitors” (Bioorg Med Chem, 2009):

Species: Ovis aries
Experiment: Selectivity index, ratio of IC50 for ovine COX1 to IC50 for ovine COX2

Question: For `Cc1ccc(N2C(=O)c3ccccc3SC2c2ccc(S(C)(=O)=O)cc2)cc1` (configuration not stated), which Ratio IC50 is on record?
Answer: 252

Each compound was assayed against T1, Prostaglandin G/H synthase 1 (Ovis aries, UniProt P05979).
T1 sequence (P05979 whole entry): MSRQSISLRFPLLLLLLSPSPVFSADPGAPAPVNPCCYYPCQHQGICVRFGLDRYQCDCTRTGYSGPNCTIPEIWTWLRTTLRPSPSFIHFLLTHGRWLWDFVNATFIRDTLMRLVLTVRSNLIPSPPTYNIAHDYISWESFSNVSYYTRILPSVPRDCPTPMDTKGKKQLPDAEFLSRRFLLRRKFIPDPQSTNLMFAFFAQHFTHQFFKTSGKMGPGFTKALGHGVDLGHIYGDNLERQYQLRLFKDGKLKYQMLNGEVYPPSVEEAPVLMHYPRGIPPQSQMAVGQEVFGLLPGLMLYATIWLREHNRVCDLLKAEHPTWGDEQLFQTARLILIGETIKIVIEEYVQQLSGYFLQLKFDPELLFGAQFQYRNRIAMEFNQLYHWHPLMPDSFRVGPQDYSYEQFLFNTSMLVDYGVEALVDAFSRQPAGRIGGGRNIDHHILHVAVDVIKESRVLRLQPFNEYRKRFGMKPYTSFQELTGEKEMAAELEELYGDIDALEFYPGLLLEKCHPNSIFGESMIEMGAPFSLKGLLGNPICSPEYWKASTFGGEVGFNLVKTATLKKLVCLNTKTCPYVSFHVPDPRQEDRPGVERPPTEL
Description: Inhibition of ovine COX1 by chemiluminescence assay

Question: `CS(=O)(=O)c1ccc(C2Sc3ccccc3C(=O)N2c2ccc(F)cc2)cc1` (configuration not stated) was tested. Which IC50 did it give?
Answer: 13 µM

Question: For `CS(=O)(=O)c1ccc(C2Sc3ccccc3C(=O)N2c2ccccc2)cc1` (configuration not stated), which IC50 is on record?
Answer: 16.5 µM

Question: For `CS(=O)(=O)c1ccc(C2Sc3ccccc3C(=O)N2CCc2ccccc2)cc1` (configuration not stated), which IC50 is on record?
Answer: 15.9 µM

Question: With `COc1ccc(N2C(=O)c3ccccc3SC2c2ccc(S(C)(=O)=O)cc2)cc1` (configuration not stated) as the compound, how does the IC50 read?
Answer: 14.8 µM

Question: How did the IC50 turn out when `Cc1ccc(N2C(=O)c3ccccc3SC2c2ccc(S(C)(=O)=O)cc2)cc1` (configuration not stated) was run?
Answer: 16.1 µM

Question: For `CS(=O)(=O)c1ccc(C2Sc3ccccc3C(=O)N2Cc2ccccc2)cc1` (configuration not stated), which IC50 is on record?
Answer: 15.8 µM
